Results on one molecule are retold here after patent US20260224542A1, “PHARMACEUTICAL COMPOSITION CONTAINING ß-LACTAMASE INHIBITOR AND USE THEREOF” (priority 2023, published 2026).

Molecules are shown by their SMILES. In brackets after ≈: the same amount, converted by molar mass.

The term solubility denotes how much of the substance goes into solution per volume.

For data set [1], the system named is Klebsiella pneumoniae AR0113. Kind of data set: Neutropenic mouse thigh infection, imipenem + Compound 1 dose ratios (Example 4). It counts as in vivo. To be noted: Compound 1 total 96 mg/kg; 9 h after inoculation. Here is the method:
(§1) The overnight cultures are washed twice with phosphate buffer solution (PBS) and adjusted to the optimal concentration in PBS.
(§2) For intravenous (IV) administration, the solution of Compound 1 is prepared using a Captisol vehicle, which is 25 mM acetate buffer (prepared with sodium acetate trihydrate) containing 10% w/v Captisol. The pH is adjusted to 5.0 with 2N acetic acid solution. A desired volume of buffer is added to the weighed sample, the desired concentration of Compound 1 is prepared in the buffer, which is then ultrasonically heated in a water bath until a clear solution was obtained. The administrated volume of Compound 1 is 5 mL/kg.
(§3) For subcutaneous (SC) administration, an imipenem solution or imipenem-cilastatin solution is prepared in sterile PBS by using imipenem monohydrate or imipenem monohydrate and cilastatin sodium. The desired concentration of imipenem is prepared by adding PBS to the solid powder, then sonicating the mixture in a water bath until a clear solution is obtained, and the administrated volume is 10 mL/kg.
(§4) The mice were divided into 16 groups, with 5 mice in each group. […]
(§5) For the […] Group 1 (control group) above, animals were euthanized with an overdose of sodium pentobarbital 1 hour after inoculation. As described above, bilateral thighs were dissected and quantitatively cultured for use as final samples.

Data set [2] in a line: Solubility of Compound 1 incubated for 24 h at 25° C. (Example 6). The class given is physicochemical. The method, then:
The solubilization effect of sodium sulfobutylether-β-cyclodextrin (SBECD) and hydroxypropyl-β-cyclodextrin (HP-β-CD) on Compound 1 was investigated by taking the solubility in 50 mM pH 4.5 acetate buffer medium and water as a reference.
In the art, surfactants may also be used for solubilization. To further improve the solubility of Compound 1, a surfactant was added on the basis of SBECD to investigate the solubility.

The test system of data set [3] is Acinetobacter baumannii AR0274. As to the kind of experiment: Neutropenic mouse thigh infection, imipenem + Compound 1 dose ratios (Example 3). The class given is in vivo. As to conditions: Compound 1 total 96 mg/kg IV; 9 h after inoculation. Here is the method:
as §1, §2, §3, §4, §5

In data set [4] the test system is Pseudomonas aeruginosa ACC00680. As to the kind of experiment: Neutropenic mouse thigh infection, imipenem + Compound 1 dose ratios (Example 1). The class given is in vivo. As to conditions: 9 h after inoculation. Here is the method: as §1, §2, §3
The mice were divided into 15 groups, with 5 mice in each group. The test was carried out following the above steps, the concentration of the bacterial solution of Pseudomonas aeruginosa ACC00680 was 1.83×10^5 colony forming unit (CFU) per gram of thigh tissues, and the administration was conducted according to the scheme in the table below.
For Groups 2 to 15 above, animals were euthanized 9 hours after inoculation using an overdose of sodium pentobarbital, followed by confirmation of death by cervical dislocation.
as §5

The test system is the same in data set [5]. As to the kind of experiment: Neutropenic mouse thigh infection, imipenem + cilastatin + Compound 1 dose ratios (Example 2). To be noted: Compound 1 total 96 mg/kg IV; 9 h after inoculation. It counts as in vivo. The method, then: as §1, §2, §3, §4, §5

In the case of `N=C1NC[C@@H](c2nnc([C@@H]3CC4(CC4)[C@@H]4CN3C(=O)N4OS(=O)(=O)O)o2)N1` [Compound 1], the “Group geometric mean (CFU/g)” value in data set [1] is on record as 2.06 × 10^7 CFU/g; in data set [3] it was 1.89 × 10^7 CFU/g; in data set [4] (Compound 1 total 50 mg/kg IV), 4.63 × 10^5 CFU/g; in data set [4] (Compound 1 total 75 mg/kg IV) it was 1.93 × 10^6 CFU/g; in data set [4] (Compound 1 total 100 mg/kg IV) it was 4.52 × 10^6 CFU/g; in data set [5], 3.21 × 10^7 CFU/g. In addition, the “effect of surfactant added on the basis of SBECD on solubility” value in data set [2] (SBECD 10% plus surfactant) was “failed to significantly improve the solubility”. Moreover, in data set [2] (water, background statement, conditions not stated), the concentration in solution (solubility) came to 600 µg/mL (≈ 1500 µM).
